SMILES strings stand for the structures.

The target in this assay is T1, Human NK1 Receptor (Homo sapiens, UniProt P25103).
T1 construct: endogenous in cells; host or cells: Human lymphoma IM9 cells (whole cells)
T1 sequence (P25103 whole entry): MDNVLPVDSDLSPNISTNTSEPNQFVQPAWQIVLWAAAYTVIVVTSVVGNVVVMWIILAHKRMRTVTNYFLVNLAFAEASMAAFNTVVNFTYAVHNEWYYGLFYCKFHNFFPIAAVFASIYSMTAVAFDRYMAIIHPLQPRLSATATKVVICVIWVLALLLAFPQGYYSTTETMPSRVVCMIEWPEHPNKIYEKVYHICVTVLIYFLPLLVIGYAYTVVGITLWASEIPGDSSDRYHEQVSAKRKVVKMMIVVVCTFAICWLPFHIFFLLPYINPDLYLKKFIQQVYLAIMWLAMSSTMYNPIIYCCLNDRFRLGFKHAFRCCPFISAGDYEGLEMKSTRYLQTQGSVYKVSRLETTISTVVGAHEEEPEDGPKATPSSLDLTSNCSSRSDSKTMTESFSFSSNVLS
Description: In Vitro Human NK1 Receptor Binding Assay ([125I]Bolton-Hunter substance P displacement, IM9 cells). Conditions: Human lymphoma IM9 cells, [125I]Bolton-Hunter substance P; Table 3, array-synthesis products; read-out: IC50 (nM) hNK1. Here is the method:
They have been evaluated in an NK1-receptor binding assay which is described below.
Human lymphoma IM9 cells were grown in RPMI 1640 culture medium supplemented with 10% fetal calf serum and 2 mM glutamine and maintained under an atmosphere of 5% CO2. Cells were passaged every 3-4 days by reseeding to a concentration of 4-8×10^6/40 ml per 175 cm^2 flask. Cells were harvested for experiments by centrifugation at 1000 g for 3 min. Pelleted cells were washed once by resuspension into assay buffer (50 mM Tris HCl pH 7.4, 3 mM MnCl2, 0.02% BSA, […] bacitracin, […] chymostatin, 2 mM phosphoramidon, […] leupeptin) and repeating the centrifugation step before resuspending at a concentration of 2.5×10^6 cells/mL assay buffer. Cells ([…]) were incubated with [^125I]Bolton-Hunter substance P (0.05-0.1 nM) in the presence and absence of varying concentrations of test compounds for 50 min at 21° C. Non-specific binding (10% of the total binding observed under these conditions) was defined by […] [Sar^9, Met(02)^11] substance P. Reactions were terminated by rapid filtration under vacuum onto GF\C filters presoaked in 0.2% PEI for 1-2 h, using a Brandel cell harvester. Filters were washed with 6×1 ml ice-cold Tris HCl (50 mM, pH 7.4) and radioactivity bound determined using a gamma couter. Results were analyzed using iterative curve fitting procedures in RS1 or Graphpad Inplot.
For the molecule `CC(NC(=O)C(Cc1c[nH]c2ccccc12)NCc1cc2ccccc2o1)c1cccc(N(C)C)c1` (stereo not drawn) [Example 227, 2-[(Benzofuran-2-ylmethyl)-amino]-N-[1-(3-dimethylamino-phenyl)-ethyl]-3-(1H-indol-3-yl)-propionamide], the IC50 came to 182 nM.

Take `O=C(NCc1cccc(C(F)(F)F)c1)C(Cc1c[nH]c2ccccc12)NCc1cc2ccccc2o1` (stereo not drawn) [Example 228, 2-[(Benzofuran-2-ylmethyl)-amino]-3-(1H-indol-3-yl)-N-(3-trifluoromethyl-benzyl)-propionamide]: the IC50 is 82 nM.

As to `O=C(NCc1ccc(F)c(Cl)c1)C(Cc1c[nH]c2ccccc12)NCc1cc2ccccc2o1` (stereo not drawn) [Example 229, 2-[(Benzofuran-2-ylmethyl)-amino]-N-(3-chloro-4-fluoro-benzyl)-3-(1H-indol-3-yl)-propionamide], the IC50 was 33 nM.

`CC(NC(=O)C(Cc1c[nH]c2ccccc12)NCc1cc2ccccc2o1)c1ccn(C)c1` (stereo not drawn) [Example 230, 2-[(Benzofuran-2-ylmethyl)-amino]-3-(1H-indol-3-yl)-N-[1-(1-methyl-1H-pyrrol-3-yl)-ethyl]-propionamide]: the IC50 worked out at 21 nM.

As for `O=C(NCc1cccnc1)C(Cc1c[nH]c2ccccc12)NCc1cc2ccccc2o1` (stereo not drawn) [Example 231, 2-[(Benzofuran-2-ylmethyl)-amino]-3-(1H-indol-3-yl)-N-pyridin-3-ylmethyl-propionamide], the IC50 stood at 790 nM.

As for `O=C(NCc1cccs1)C(Cc1c[nH]c2ccccc12)NCc1cc2ccccc2o1` (stereo not drawn) [Example 232, 2-[(Benzofuran-2-ylmethyl)-amino]-3-(1H-indol-3-yl)-N-thiophen-2-ylmethyl-propionamide], the IC50 was determined as 63 nM.

For the molecule `CC(CNC(=O)C(Cc1c[nH]c2ccccc12)NCc1cc2ccccc2o1)c1ccccc1` (stereo not drawn) [Example 233, 2-[(Benzofuran-2-ylmethyl)-amino]-3-(1H-indol-3-yl)-N-(2-phenyl-propyl)-propionamide], the IC50 was 2000 nM.

As for `CC(NC(=O)C(Cc1c[nH]c2ccccc12)NCc1cc2ccccc2o1)c1ccccc1` (stereo not drawn) [Example 234, 2-[(Benzofuran-2-ylmethyl)-amino]-3-(1H-indol-3-yl)-N-(1-phenyl-ethyl)-propionamide], the IC50 was found to be 75 nM.

On to `CC(NC(=O)C(Cc1c[nH]c2ccccc12)NCc1cc2ccccc2o1)c1ccc(F)cc1` (stereo not drawn) [Example 235, 2-[(Benzofuran-2-ylmethyl)-amino]-N-[1-(4-fluoro-phenyl)-ethyl]-3-(1H-indol-3-yl)-propionamide], for which the IC50 was 3 nM.

As for `CC(NC(=O)C(Cc1c[nH]c2ccccc12)NCc1cc2ccccc2o1)c1ccsc1` (stereo not drawn) [Example 236, 2-[(Benzofuran-2-ylmethyl)-amino]-3-(1H-indol-3-yl)-N-(1-thiophen-3-yl-ethyl)-propionamide], the IC50 was 7 nM.

`O=C(CNC(=O)C(Cc1c[nH]c2ccccc12)NCc1cc2ccccc2o1)c1ccccc1` (stereo not drawn) [Example 237, 2-[(Benzofuran-2-ylmethyl)-amino]-3-(1H-indol-3-yl)-N-(2-oxo-2-phenyl-ethyl)-propionamide]: the IC50 worked out at 5340 nM.

On to `O=C(NCc1ccccc1F)C(Cc1c[nH]c2ccccc12)NCc1cc2ccccc2o1` (stereo not drawn) [Example 238, 2-[(Benzofuran-2-ylmethyl)-amino]-N-(2-fluoro-benzyl)-3-(1H-indol-3-yl)-propionamide], for which the IC50 was 89 nM.

Consider `O=C(NC1Cc2ccccc2C1)C(Cc1c[nH]c2ccccc12)NCc1cc2ccccc2o1` (stereo not drawn) [Example 239, 2-[(Benzofuran-2-ylmethyl)-amino]-N-indan-2-yl-3-(1H-indol-3-yl)-propionamide], for which the IC50 was determined as 243 nM.

Turning to `O=C(NCc1ccncc1)C(Cc1c[nH]c2ccccc12)NCc1cc2ccccc2o1` (stereo not drawn) [Example 240], the IC50 worked out at 196 nM.

With `CC(NC(=O)C(Cc1c[nH]c2ccccc12)NCc1cc2ccccc2o1)C1CCCCC1` (stereo not drawn) [Example 241, 2-[(Benzofuran-2-ylmethyl)-amino]-N-(1-cyclohexyl-ethyl)-3-(1H-indol-3-yl)-propionamide], the IC50 amounted to 2 nM.

Take `Cc1ccccc1CNC(=O)C(Cc1c[nH]c2ccccc12)NCc1cc2ccccc2o1` (stereo not drawn) [Example 242, 2-[(Benzofuran-2-ylmethyl)-amino]-3-(1H-indol-3-yl)-N-(2-methyl-benzyl)-propionamide]: the IC50 was determined as 170 nM.

As to `CC(NC(=O)C(Cc1c[nH]c2ccccc12)NCc1cc2ccccc2o1)c1ccc(Cl)s1` (stereo not drawn) [Example 243, 2-[(Benzofuran-2-ylmethyl)-amino]-N-[1-(5-chloro-thiophen-2-yl)-ethyl]-3-(1H-indol-3-yl)-propionamide], the IC50 amounted to 15 nM.

Take `O=C(NCc1ccc(F)cc1)C(Cc1c[nH]c2ccccc12)NCc1cc2ccccc2o1` (stereo not drawn) [Example 244, 2-[(Benzofuran-2-ylmethyl)-amino]-N-(4-fluoro-benzyl)-3-(1H-indol-3-yl)-propionamide]: the IC50 was 12 nM.

Regarding `O=C(NCCc1ccccc1)C(Cc1c[nH]c2ccccc12)NCc1cc2ccccc2o1` (stereo not drawn) [Example 246, 2-[(Benzofuran-2-ylmethyl)-amino]-3-(1H-indol-3-yl)-N-phenethyl-propionamide], the IC50 came out at 77 nM.

On to `O=C(NCCc1cccs1)C(Cc1c[nH]c2ccccc12)NCc1cc2ccccc2o1` (stereo not drawn) [Example 247, 2-[(Benzofuran-2-ylmethyl)-amino]-3-(1H-indol-3-yl)-N-(2-thiophen-2-yl-ethyl)-propionamide], for which the IC50 was 56 nM.

As for `O=C(NCc1cccc(F)c1)C(Cc1c[nH]c2ccccc12)NCc1cc2ccccc2o1` (stereo not drawn) [Example 248, 2-[(Benzofuran-2-ylmethyl)-amino]-N-(3-fluoro-benzyl)-3-(1H-indol-3-yl)-propionamide], the half-maximal inhibitory concentration (IC50) came to 6 nM.

Consider `O=C(NCc1nc2ccccc2[nH]1)C(Cc1c[nH]c2ccccc12)NCc1cc2ccccc2o1` (stereo not drawn) [Example 250, 2-[(Benzofuran-2-ylmethyl)-amino]-N-(1H-benzoimidazol-2-ylmethyl)-3-(1H-indol-3-yl)-propionamide], for which the IC50 is 3410 nM.

Consider `O=C(NCCc1ccco1)C(Cc1c[nH]c2ccccc12)NCc1cc2ccccc2o1` (stereo not drawn) [Example 251, 2-[(Benzofuran-2-ylmethyl)-amino]-N-(2-furan-2-yl-ethyl)-3-(1H-indol-3-yl)-propionamide], for which the IC50 stood at 129 nM.

For the molecule `Cc1cccc(CNC(=O)C(Cc2c[nH]c3ccccc23)NCc2cc3ccccc3o2)c1` (stereo not drawn) [Example 252, 2-[(Benzofuran-2-ylmethyl)-amino]-3-(1H-indol-3-yl)-N-(3-methyl-benzyl)-propionamide], the IC50 was 33 nM.

On to `O=C(NC1CCc2ccccc2C1)C(Cc1c[nH]c2ccccc12)NCc1cc2ccccc2o1` (stereo not drawn) [Example 253, 2-[(Benzofuran-2-ylmethyl)-amino]-3-(1H-indol-3-yl)-N-(1,2,3,4-tetrahydro-naphthalen-2-yl)-propionamide], for which the IC50 was 3330 nM.

For the molecule `O=C(NCc1ccccc1)C(Cc1c[nH]c2ccccc12)NCc1cc2ccccc2o1` (stereo not drawn) [Example 254, 2-[(Benzofuran-2-ylmethyl)-amino]-N-benzyl-3-(1H-indol-3-yl)-propionamide], the IC50 was found to be 22 nM.

As for `COc1ccc(C(C)NC(=O)C(Cc2c[nH]c3ccccc23)NCc2cc3ccccc3o2)cc1` (stereo not drawn) [Example 255, 2-[(Benzofuran-2-ylmethyl)-amino]-3-(1H-indol-3-yl)-N-[1-(4-methoxy-phenyl)-ethyl]-propionamide], the 50% inhibitory concentration (IC50) came to 9 nM.

The values above are taken from patent US6472418B1, “Non-peptide NK1 receptors antagonists” (Warner-Lambert Company, priority 1998, dated 2002).
